Experimental data reported in PubChem BioAssay (NCI).
“And” between values parts separate entries of the source, which are not always exact repeats. Equal values may be shown once.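 Results reflect a 48-hour exposure of cells in 96-well plates to compound at five concentrations. GI50 = concentration required for 50% inhibition of growth. Definition used: TGI = concentration required for complete inhibition of growth.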 Numbered stars: 1 amine (or outer) side, 2 acyl side, 3 side chain; on linkers, the order of the positions; unused ones are H or OH. Bridge positions count the residues as written; N and C are the ends. Square brackets hold non-standard residues; d marks the D form. Peptide text beside a SMILES is read from it. I, II: the chains in the order shown. Actinocin(1to9) = Cc1c2oc3c(C)ccc(C(=O)[*:2])c3nc-2c(C(=O)[*:1])c(N)c1=O; NMeY = CN[CH](Cc1ccc(O)cc1)C(=O)O; Sar = CNCC(=O)O

Legend:
Assay in all cases: growth of human tumour cells (NCI), 48 h
NCI/ADR-RES ovarian = test system: NCI/ADR-RES ovarian
OVCAR-4 ovarian = test system: OVCAR-4 ovarian
A549 NSCLC = test system: A549 NSCLC
EKVX NSCLC = test system: EKVX NSCLC
SF-295 CNS = test system: SF-295 CNS
OVCAR-8 ovarian = test system: OVCAR-8 ovarian
KM12 colon = test system: KM12 colon
UO-31 renal = test system: UO-31 renal
MDA-MB-435 = test system: MDA-MB-435
HOP-62 NSCLC = test system: HOP-62 NSCLC

SMILES	GI50 (NCI/ADR-RES ovarian)	TGI (NCI/ADR-RES ovarian)	TGI (OVCAR-4 ovarian)	TGI (A549 NSCLC)	GI50 (EKVX NSCLC)	TGI (EKVX NSCLC)	TGI (SF-295 CNS)	GI50 (OVCAR-8 ovarian)	TGI (OVCAR-8 ovarian)	GI50 (KM12 colon)	TGI (KM12 colon)	GI50 (UO-31 renal)	TGI (UO-31 renal)	GI50 (A549 NSCLC)	GI50 (MDA-MB-435)	TGI (MDA-MB-435)	GI50 (HOP-62 NSCLC)	TGI (HOP-62 NSCLC)	GI50 (SF-295 CNS)	GI50 (OVCAR-4 ovarian)
COc1ccc(CC2C(=O)OC(C)C(NC(=O)c3c4nc5c(C(=O)NC6C(=O)NC(C(C)C)C(=O)N7CCCC7C(=O)N(C)CC(=O)N(C)C(Cc7ccc(OC)cc7)C(=O)OC6C)ccc(C)c5oc-4c(C)c(=O)c3N)C(=O)NC(C(C)C)C(=O)N3CCCC3C(=O)N(C)CC(=O)N2C)cc1 (stereo not given) (I: TVP[Sar][NMeY](Me) / II: TVP[Sar][NMeY](Me); ester I:1-I:C, II:1-II:C; linker I:N-II:N via Actinocin(1to9); configuration not given here)	0.0901 µM and > 0.863 µM	11.5 µM and > 1 µM	< 0.01 µM	0.29 µM and > 1 µM	< 0.01 µM and 0.0696 µM	0.0734 µM and > 0.617 µM	0.28 µM	–	–	–	–	–	–	–	–	–	–	–	–	–
COc1c(N2CCN(CN3C(=O)C(=Nc4ccc(S(=O)(=O)Nc5ncccn5)cc4)c4cc(Cl)ccc43)C(C)C2)c(F)cc2c(=O)c(C(=O)O)cn(C3CC3)c12 (stereo not given)	12.3 µM	38.1 µM	–	> 50 µM	18.9 µM	> 50 µM	> 50 µM	13.9 µM	> 50 µM	9.61 µM	26.8 µM	37.5 µM	> 50 µM	18.5 µM	10.3 µM	21.1 µM	18.2 µM	> 50 µM	24.5 µM	–
CCOC(=O)C1=C(C)NC(c2ccco2)=C(C#N)C1c1cccc([N+](=O)[O-])c1 (stereo not given)	–	0.356 µM	74.8 µM	–	0.0263 µM	88.6 µM	–	0.0149 µM	13.9 µM	0.035 µM	16 µM	0.14 µM	27.9 µM	0.0293 µM	–	–	0.0174 µM	17.2 µM	–	4.53 µM
CC(=O)[CH-]C(=O)c1ccccc1.CC(=O)[CH-]C(=O)c1ccccc1.[O-]c1ccc2c(c1)OCO2.[O-]c1ccc2c(c1)OCO2.[Ti+4]	–	–	> 100 µM	> 100 µM	25.8 µM	72.9 µM	> 100 µM	34.4 µM	> 100 µM	16.2 µM	38.2 µM	35.9 µM	94.3 µM	41.7 µM	–	–	20.4 µM	93.8 µM	30.6 µM	31.8 µM
Nc1ccc(/C=C/c2ccc3cccnc3c2)cc1	–	> 100 µM	–	> 100 µM	–	> 100 µM	> 100 µM	–	> 100 µM	–	> 100 µM	–	> 100 µM	–	–	> 100 µM	–	> 100 µM	–	–
COC(=O)C1CCc2nnc(-c3ccccc3)n21 (stereo not given)	–	–	> 100 µM	> 100 µM	–	> 100 µM	> 100 µM	–	> 100 µM	–	> 100 µM	–	> 100 µM	–	–	–	–	> 100 µM	–	–
NC(=O)c1ccc(Cl)c([N+](=O)[O-])c1	–	–	> 100 µM	> 100 µM	–	> 100 µM	> 100 µM	–	> 100 µM	–	> 100 µM	–	> 100 µM	–	–	–	–	> 100 µM	–	–
C[C@H]1C=C2C(=O)O[C@H]3CC[C@@H](C1)[C@@]23O	–	–	24.4 µM	34.3 µM	–	8.36 µM	16.4 µM	–	13.8 µM	–	12.7 µM	–	32.1 µM	–	–	–	–	–	–	–
CO[C@@]1(c2ccccc2)O[C@H]2OCCC2[C@H]1c1ccc(Cl)cc1 (stereo not given in full)	–	–	91.1 µM	> 100 µM	–	64.5 µM	59.7 µM	–	> 100 µM	–	> 100 µM	–	90.4 µM	–	–	–	–	> 100 µM	–	–
COCCNc1cncc(C(N)=O)c1	–	> 100 µM	> 100 µM	> 100 µM	–	> 100 µM	> 100 µM	–	> 100 µM	–	> 100 µM	–	> 100 µM	–	–	–	–	> 100 µM	–	–
C=C1C[C@@H]2C[C@@H](C)CC(O)[C@]2(CCCN)C1O (stereo not given in full)	–	–	> 100 µM	> 100 µM	–	> 100 µM	> 100 µM	–	> 100 µM	–	> 100 µM	–	> 100 µM	–	–	–	–	> 100 µM	–	–
CC(=O)[O-].N.N.N.N.[Co+3].[O-][Cl+3]([O-])([O-])[O-].[OH3+]	–	–	> 100 µM	> 100 µM	> 100 µM	> 100 µM	> 100 µM	> 100 µM	> 100 µM	> 100 µM	> 100 µM	84.6 µM	> 100 µM	> 100 µM	–	–	> 100 µM	> 100 µM	> 100 µM	> 100 µM
CC(=O)Oc1ccc2c(c1)C(=O)c1nc(C)c(C)nc1C2=O	–	–	> 89 µM	> 100 µM	–	> 78.6 µM	> 100 µM	–	> 100 µM	–	> 100 µM	–	> 100 µM	–	–	–	–	> 100 µM	–	–
COC(=O)N/N=C(\C)CC(=O)Nc1ccc(Cl)cc1	–	–	–	> 100 µM	–	> 100 µM	> 100 µM	–	> 100 µM	–	> 100 µM	–	> 100 µM	–	–	–	–	> 100 µM	–	–
c1ccc(OC2=NC3=S(S2)SC(Oc2ccccc2)=N3)cc1	–	–	–	47.6 µM	–	48.3 µM	39 µM	–	57.6 µM	–	34.4 µM	–	36.3 µM	–	–	–	–	67.1 µM	–	–
C[CH2][Sn]([CH2]C)([O]C(=O)c1ccc(F)cc1)[O]C(=O)c1ccc(F)cc1	–	–	> 100 µM	> 100 µM	> 100 µM	> 100 µM	> 65.7 µM	> 52.9 µM	> 79.2 µM	> 100 µM	> 100 µM	32.8 µM	> 56.3 µM	> 100 µM	–	–	62.6 µM	> 100 µM	44.3 µM	52.4 µM
COc1ccc([C@@H]2OC(=O)C3C2C(=O)O[C@H]3c2ccc(OC)c(OC)c2)cc1OC (stereo not given in full)	–	–	> 100 µM	> 100 µM	–	> 100 µM	> 100 µM	–	> 100 µM	–	> 100 µM	–	> 100 µM	–	–	–	–	> 100 µM	–	–
CC1=CCCC2C(C=O)(C1)CC(C)C2(CO)CC/C(=C/CO)CO (stereo not given)	–	–	–	> 100 µM	–	> 100 µM	> 100 µM	–	> 100 µM	–	> 100 µM	–	82.8 µM	–	–	–	–	–	–	–
O=c1c2cc3ccccc3n2c(=O)c2cc3ccccc3n12	–	–	> 100 µM	> 100 µM	–	> 100 µM	> 100 µM	–	> 100 µM	–	> 100 µM	–	> 100 µM	–	–	–	–	–	–	–
N#CC1=C(N)NC(=O)NC12Nc1ccccc1N2	> 100 µM	> 100 µM	> 100 µM	> 100 µM	> 100 µM	> 100 µM	> 100 µM	> 100 µM	> 100 µM	> 100 µM	> 100 µM	–	–	> 100 µM	> 100 µM	> 100 µM	> 100 µM	> 100 µM	> 100 µM	> 100 µM
